Laboratory results taken from the supplement of paper PMC10307832.

Key:
Test in all cases: relative viability (nuclei count vs DMSO), 5 days (fraction); higher = more cells survive
[1] = compound: O=C(CCCCCCNC(=O)c1cnc(N(c2ccccc2)c2ccccc2)nc1)NO [Ricolinostat] + Nc1nc2[nH]cc(CCc3ccc(C(=O)N[C@@H](CCC(=O)O)C(=O)O)cc3)c2c(=O)[nH]1 [Pemetrexed] (partner 0.2 µM)
How it was run: (§1)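 Nuclei were stained with Hoechst during a one-step fixation (final 0.05% Triton X-100, 1% formaldehyde, 1 ug/ml Hoechst) carried out 5 days after dosing, then counted on 4× images. The cells, lung cancer lines in 1536-well plates, had been dosed by pin tool the day after seeding with one drug alone or a fixed anchor-drug dose plus five library-drug doses (not always all listed) in √10 steps. Relative viability is the nuclei count in treated wells divided by that in vehicle wells, and each value is the median of duplicate plates.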

[2] = compound: O=C(CCCCCCNC(=O)c1cnc(N(c2ccccc2)c2ccccc2)nc1)NO [Ricolinostat] + CC1(C)CCC(c2ccc(Cl)cc2)=C(CN2CCN(c3ccc(C(=O)NS(=O)(=O)c4ccc(N[C@H](CCN5CCOCC5)CSc5ccccc5)c(S(=O)(=O)C(F)(F)F)c4)cc3)CC2)C1 [Navitoclax] (partner 0.5 µM)
How it was run: as §1

[3] = compound: O=C(CCCCCCNC(=O)c1cnc(N(c2ccccc2)c2ccccc2)nc1)NO [Ricolinostat] + Cc1nc(Nc2ncc(C(=O)Nc3c(C)cccc3Cl)s2)cc(N2CCN(CCO)CC2)n1 [Dasatinib] (partner 0.075 µM)
How it was run: as §1

[4] = compound: O=C(CCCCCCNC(=O)c1cnc(N(c2ccccc2)c2ccccc2)nc1)NO [Ricolinostat] + COc1cc2c(Oc3ccc(NC(=O)C4(C(=O)Nc5ccc(F)cc5)CC4)cc3F)ccnc2cc1OCCCN1CCOCC1 [Foretinib] (partner 0.25 µM)
How it was run: as §1

Cell Line | relative viability ([1]; first compound 0.08 µM) | relative viability ([1]; first compound 0.253 µM) | relative viability ([1]; first compound 0.8 µM) | relative viability ([1]; first compound 2.53 µM) | relative viability ([2]; first compound 0.253 µM) | relative viability ([2]; first compound 0.8 µM) | relative viability ([2]; first compound 2.53 µM) | relative viability ([3]; first compound 0.08 µM) | relative viability ([3]; first compound 0.253 µM) | relative viability ([3]; first compound 0.8 µM) | relative viability ([3]; first compound 2.53 µM) | relative viability ([4]; first compound 0.08 µM) | relative viability ([4]; first compound 0.253 µM) | relative viability ([4]; first compound 0.8 µM) | relative viability ([4]; first compound 2.53 µM) | relative viability ([2]; first compound 0.08 µM)
EPLC-272H | 0.448 | 0.365 | 0.334 | 0.297 | 0.784 | 0.992 | 0.631 | 0.308 | 0.387 | 0.336 | 0.212 | 0.632 | 0.704 | 0.442 | 0.354 | –
NCI-H2087 | 0.656 | 0.646 | 0.608 | 0.584 | 1.04 | 1.02 | 1.04 | – | 0.903 | 0.663 | 0.889 | – | 1.09 | 1.07 | 1.05 | 0.96
A-427 | 0.711 | 0.941 | 0.828 | 0.832 | 0.906 | 0.89 | 0.754 | – | 0.621 | 0.583 | 0.471 | – | 1.17 | 0.925 | 1.14 | 0.861
NCI-H460 | 0.0618 | 0.0585 | 0.0722 | 0.0727 | 0.93 | 1.08 | 1.21 | 0.319 | 0.459 | 0.444 | 0.42 | 0.972 | 0.927 | 1.04 | 1.04 | 1.12
EBC-1 | – | – | – | – | 0.358 | 0.304 | 0.172 | – | – | – | – | 0.0899 | 0.101 | 0.0995 | 0.0994 | 0.375
NCI-H23 | 0.562 | 0.642 | 0.684 | 0.737 | 0.791 | 0.924 | 0.932 | 0.667 | 0.786 | 0.698 | 0.47 | 0.999 | 0.898 | 0.97 | 1.13 | 0.82
NCI-H1437 | 0.329 | 0.32 | 0.276 | 0.263 | 1.07 | 1.02 | 0.831 | 0.398 | 0.511 | 0.337 | 0.279 | 1.12 | 1.28 | 1.17 | 1.05 | 1
EKVX | 0.34 | 0.394 | 0.335 | 0.406 | 0.805 | 0.842 | 1.02 | 0.471 | 0.658 | 0.577 | 0.606 | 0.845 | 0.846 | – | 0.725 | –
NCI-H1299 | – | – | – | – | 0.987 | 1.02 | 1.01 | – | – | – | – | 1.05 | 1.07 | 1.07 | 1.06 | 0.987
NCI-H1650 | 0.379 | 0.403 | 0.337 | 0.349 | 1.19 | 1.12 | 0.82 | 0.275 | 0.381 | 0.289 | 0.287 | 1.17 | 1.05 | 0.886 | 0.635 | 0.948
SW 900 | 0.496 | 0.488 | 0.491 | 0.441 | – | – | – | 0.495 | 0.578 | 0.662 | 0.352 | 0.733 | 0.883 | 0.886 | 0.989 | –
NCI-H1703 | – | – | – | – | 0.978 | 1.05 | 1.54 | – | – | – | – | – | 0.398 | 0.318 | 0.513 | –
NCI-H522 | 0.972 | 1.03 | 1.05 | 0.924 | – | – | – | 0.867 | 0.884 | 0.946 | 0.872 | – | – | – | – | –
NCI-H650 | 0.643 | 0.912 | 0.861 | 0.734 | – | – | – | 0.36 | 0.463 | 0.365 | 0.314 | 0.957 | 0.997 | 0.872 | 0.8 | –
NCI-H1623 | – | – | – | – | – | – | – | 0.484 | 0.612 | 0.528 | 0.475 | 0.795 | 0.9 | 0.825 | 0.739 | –
ABC-1 | – | – | – | – | – | – | – | 0.556 | 0.632 | 0.563 | 0.489 | 0.88 | 0.901 | 1.11 | 0.912 | –
NCI-H1648 | – | 0.596 | 0.629 | 0.521 | – | – | – | – | – | – | – | – | – | – | – | –
NCI-H1563 | 0.788 | 0.767 | 0.74 | 0.726 | – | – | – | 0.472 | 0.461 | 0.441 | 0.494 | 0.89 | 0.874 | 0.844 | 0.793 | –
Calu-6 | – | – | – | – | 0.852 | 0.803 | 0.783 | – | – | – | – | 0.923 | 0.93 | 0.848 | 0.83 | 0.801
NCI-H358 | 0.179 | 0.194 | 0.183 | 0.156 | – | – | – | 0.164 | 0.168 | 0.146 | 0.187 | 0.594 | 0.636 | 0.631 | 0.503 | –
A549 | – | – | – | – | 1.18 | 1.1 | 1.21 | – | – | – | – | 0.859 | 0.99 | 0.928 | 0.917 | 1.07
LCLC-103H | 0.488 | 0.463 | 0.476 | 0.516 | – | – | – | 0.437 | 0.55 | 0.423 | 0.464 | 0.688 | 0.798 | 0.787 | 0.748 | –
HCC-44 | 0.661 | 0.548 | 0.682 | 0.601 | 1.04 | 0.985 | 0.93 | – | – | – | – | – | – | – | – | 0.861
IA-LM | – | – | – | – | 0.626 | 0.747 | 0.603 | – | – | – | – | 0.959 | 1.01 | 1.09 | 0.932 | 0.802
